The source made the active and inactive calls. The calls are words filed in the database; no cut-off is given here.
Tests used:
[1] = Cmax in Sprague-Dawley rat at 100 mg/kg, po and measured upto 24 hrs by LC-MS/MS analysis; type: ADME, organism-based; design: dose 100 mg/kg, time < 24 hrs, route po; settings: in vivo
A2780 = assay: Inhibition of colony formation in human A2780 cells assessed as reduction in number of colonies at 0.25 to 10 uM incubated for 14 days with medium change every 3 days by crystal violet staining method; type: functional, cell-based; settings: dose 0.25-10 µM, time 14.0 day
A549 = assay: Antiproliferative activity against human A549 cells assessed as inhibition of cell proliferation incubated for 72 hrs by MTT assay; type: functional, cell-based; settings: A549, 72 h
[2] = Toxicity in BALB/C nude mouse xenografted with human PA-1 cells assessed as pathological changes in spleen at 75 to 150 mg/kg,po BID for 21 days by H&E staining based microscopic analysis; type: organism-based; settings: in vivo, 504 h, dose 75-150 mg/kg, time 21 day
[3] = Volume of distribution at steady state in Sprague-Dawley rat at 5 mg/kg, iv and measured upto 24 hrs by LC-MS/MS analysis; type: ADME, organism-based; settings: in vivo
[4] = Antiproliferative activity against human COV362 cells assessed as inhibition of cell proliferation incubated for 72 hrs by MTT assay; type: functional, cell-based; settings: COV362, 72 h
[5] = Toxicity in BALB/C nude mouse xenografted with human PA-1 cells assessed as body weight change at 75 to 150 mg/kg,po BID for 21 days; type: organism-based; settings: in vivo, 504 h, dose 75-150 mg/kg, time 21 day
[6] = tested on: Histone-lysine N-methyltransferase EZH2 (Homo sapiens), Q15910 [Y641F]; settings: dose 10.0 nM
Histone-lysine N-methyltransferase EZH2 (Homo sapiens), Q15910 [Y641F], sequence (Q15910 whole entry Y641F, looked up): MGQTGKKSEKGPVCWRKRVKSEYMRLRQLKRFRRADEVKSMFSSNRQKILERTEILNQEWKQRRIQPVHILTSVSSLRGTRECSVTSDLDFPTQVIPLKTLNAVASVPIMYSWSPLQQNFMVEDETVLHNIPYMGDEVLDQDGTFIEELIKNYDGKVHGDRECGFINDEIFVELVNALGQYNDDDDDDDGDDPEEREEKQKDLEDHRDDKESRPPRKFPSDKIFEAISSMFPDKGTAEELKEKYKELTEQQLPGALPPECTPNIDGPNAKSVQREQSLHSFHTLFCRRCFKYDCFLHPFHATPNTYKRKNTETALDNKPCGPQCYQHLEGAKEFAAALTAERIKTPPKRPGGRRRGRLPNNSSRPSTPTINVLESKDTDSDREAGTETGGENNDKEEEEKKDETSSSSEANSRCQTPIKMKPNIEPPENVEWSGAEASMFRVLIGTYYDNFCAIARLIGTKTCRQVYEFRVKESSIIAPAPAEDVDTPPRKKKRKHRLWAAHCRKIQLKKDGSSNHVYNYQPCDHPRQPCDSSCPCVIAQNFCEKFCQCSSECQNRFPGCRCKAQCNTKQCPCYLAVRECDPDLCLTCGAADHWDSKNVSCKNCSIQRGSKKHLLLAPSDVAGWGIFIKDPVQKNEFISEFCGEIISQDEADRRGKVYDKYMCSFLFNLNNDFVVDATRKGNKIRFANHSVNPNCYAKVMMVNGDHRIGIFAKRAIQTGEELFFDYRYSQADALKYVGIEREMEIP
Description: Inhibition of EZH2 Y614F mutant (unknown origin) at 10 nM by AlphaLlSA assay

[7] = target: T1, Histone-lysine N-methyltransferase EZH2 (Homo sapiens, UniProt Q15910); assay: Covalent inhibition of EZH2 (unknown origin) assessed as slow change in dissociation rate preincubated for 60 mins followed by substrate addition and measured upto 90 mins using Mix-GL11 and 3H-SAM as substrate by spin column method; settings: time > 150.0 min
Target sequence in this assay (Q15910 whole entry, looked up): as the sequence (Q15910 whole entry Y641F, looked up) above, with F641Y counted along it

[8] = target: T1, Histone-lysine N-methyltransferase EZH2; assay: Inhibition of EZH2 methyltransferase activity in human PA-1 cells assessed as reduction in H3K27me3 level at 0.3 to 5 uM incubated for 3 days by Western blot analysis; type: cell-based; settings: dose 0.3-5 µM, time 3.0 day
Target sequence in this assay (Q15910 whole entry, looked up): as the sequence (Q15910 whole entry Y641F, looked up) above, with F641Y counted along it

PA-1 [9] = assay: Antitumor activity against human PA-1 cells xenografted in BALB/C nude mouse assessed as reduction tumor cell proliferation at 75 to 150 mg/kg,po BID for 21 days by Ki67 staining based immunohistochemical analysis; type: functional, organism-based; settings: dose 75-150 mg/kg, time 21.0 day
PA-1 [10] = assay: Induction of apoptosis in human PA-1 cells assessed as late apoptotic cells at 10 uM incubated for 48 hrs by AnnexinV-FITC/PI staining based flow cytometry analysis (Rvb= 3.09%); type: functional
PA-1 [11] = assay: Antiproliferative activity against human PA-1 cells assessed as inhibition of cell proliferation incubated for 3 to 5 days by MTT assay; type: functional, cell-based; settings: time 3-5 day, TDE = time-dependent effect
[12] = Toxicity in BALB/C nude mouse xenografted with human PA-1 cells assessed as pathological changes in hematological parameters at 75 to 150 mg/kg,po BID for 21 days; type: organism-based; settings: in vivo, 504 h, dose 75-150 mg/kg, time 21 day
[13] = target: T1, Histone-lysine N-methyltransferase EZH2; assay: Inhibition of wild type EZH2 (unknown origin) by AlphaLlSA assay
Target sequence in this assay (Q15910 whole entry): as the sequence (Q15910 whole entry Y641F, looked up) above, with F641Y counted along it

PA-1 [14] = assay: Induction of apoptosis in human PA-1 cells assessed as early apoptotic cells at 40 uM incubated for 48 hrs by AnnexinV-FITC/PI staining based flow cytometry analysis (Rvb= 6.89%); type: functional
[15] = Toxicity in BALB/C nude mouse xenografted with human PA-1 cells assessed as pathological changes in kidney at 75 to 150 mg/kg,po BID for 21 days by H&E staining based microscopic analysis; type: organism-based; settings: in vivo, 504 h, dose 75-150 mg/kg, time 21 day
[16] = Half life in Sprague-Dawley rat at 100 mg/kg, po and measured upto 24 hrs by LC-MS/MS analysis; type: ADME, organism-based; settings: in vivo
[17] = target: Protein arginine N-methyltransferase 1 (Homo sapiens) (UniProt Q99873); assay: Inhibition of PRMT1 (unknown origin) at 1 to 10 uM by AlphaLlSA assay; settings: dose 1-10 µM
Protein arginine N-methyltransferase 1 (Homo sapiens), sequence (Q99873 whole entry, looked up): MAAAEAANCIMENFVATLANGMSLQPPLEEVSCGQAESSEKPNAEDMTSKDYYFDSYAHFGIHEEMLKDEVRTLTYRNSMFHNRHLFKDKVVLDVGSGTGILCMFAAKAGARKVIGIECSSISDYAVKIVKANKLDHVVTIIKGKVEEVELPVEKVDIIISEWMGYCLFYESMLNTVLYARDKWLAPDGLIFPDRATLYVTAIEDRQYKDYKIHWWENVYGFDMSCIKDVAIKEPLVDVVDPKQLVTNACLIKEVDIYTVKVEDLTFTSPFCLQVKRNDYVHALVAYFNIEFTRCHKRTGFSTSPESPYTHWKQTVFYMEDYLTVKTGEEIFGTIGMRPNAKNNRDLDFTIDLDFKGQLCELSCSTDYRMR

[18] = Cmax in Sprague-Dawley rat at 5 mg/kg, iv and measured upto 24 hrs by LC-MS/MS analysis; type: ADME, organism-based; design: dose 5 mg/kg, time < 24 hrs, route iv; settings: in vivo
[19] = Glutathione reactivity in pH 7.4 phosphate buffer assessed as GSH-adduct formation at 1 mM incubated for 2 to 12 hrs by HPLC-MS analysis; type: physicochemical; settings: pH 7.4, 1000 µM, time 2-12 hrs
[20] = Half life in Sprague-Dawley rat at 5 mg/kg, iv and measured upto 24 hrs by LC-MS/MS analysis; type: ADME, organism-based; settings: in vivo
[21] = Tmax in Sprague-Dawley rat at 100 mg/kg, po and measured upto 24 hrs by LC-MS/MS analysis; type: ADME, organism-based; settings: in vivo
[22] = target: T1, Histone-lysine N-methyltransferase EZH2; assay: Inhibition of EZH2 methyltransferase activity in human PA-1 cells assessed as reduction in H3K27me3 level at 10 uM incubated for 3 days followed by compound washout and measured after 4 days by Western blot analysis; type: cell-based; settings: time 3.0 day
Target sequence in this assay (Q15910 whole entry, looked up): as the sequence (Q15910 whole entry Y641F, looked up) above, with F641Y counted along it

[23] = tested on: Histone-lysine N-methyltransferase EZH2 (Homo sapiens), Q15910 [A677G]; assay: Inhibition of EZH2 […] mutant (unknown origin) at 1 nM by AlphaLlSA assay
Histone-lysine N-methyltransferase EZH2 (Homo sapiens), Q15910 [A677G], sequence (Q15910 whole entry A677G): as the sequence (Q15910 whole entry Y641F, looked up) above, with F641Y, A677G counted along it

[24] = target: N-lysine methyltransferase SMYD2 (Homo sapiens) (UniProt Q9NRG4); assay: Inhibition of SMYD2 (unknown origin) at 1 to 10 uM by AlphaLlSA assay; settings: dose 1-10 µM
N-lysine methyltransferase SMYD2 (Homo sapiens), sequence (Q9NRG4 whole entry): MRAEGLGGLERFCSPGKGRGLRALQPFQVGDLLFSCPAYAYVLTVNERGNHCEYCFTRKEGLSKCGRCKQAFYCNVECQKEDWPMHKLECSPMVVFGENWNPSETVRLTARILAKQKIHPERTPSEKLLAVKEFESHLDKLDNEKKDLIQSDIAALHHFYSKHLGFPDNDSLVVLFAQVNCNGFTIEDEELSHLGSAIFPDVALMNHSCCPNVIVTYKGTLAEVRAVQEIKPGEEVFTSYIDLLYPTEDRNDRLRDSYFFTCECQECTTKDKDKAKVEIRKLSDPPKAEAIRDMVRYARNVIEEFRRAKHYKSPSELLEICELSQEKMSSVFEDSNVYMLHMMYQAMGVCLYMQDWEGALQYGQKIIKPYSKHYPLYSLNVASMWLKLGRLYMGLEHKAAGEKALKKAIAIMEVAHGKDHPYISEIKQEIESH

[25] = tested on: Histone-lysine N-methyltransferase EZH2 (Homo sapiens), Q15910 [A677G]; settings: dose 10.0 nM
Description: Inhibition of EZH2 A667G mutant (unknown origin) at 10 nM by AlphaLlSA assay

[26] = target: N-lysine methyltransferase KMT5A (Homo sapiens) (UniProt Q9NQR1); assay: Inhibition of SETD8 (unknown origin) at 1 to 10 uM by AlphaLlSA assay; settings: dose 1-10 µM
N-lysine methyltransferase KMT5A (Homo sapiens), sequence (Q9NQR1 whole entry): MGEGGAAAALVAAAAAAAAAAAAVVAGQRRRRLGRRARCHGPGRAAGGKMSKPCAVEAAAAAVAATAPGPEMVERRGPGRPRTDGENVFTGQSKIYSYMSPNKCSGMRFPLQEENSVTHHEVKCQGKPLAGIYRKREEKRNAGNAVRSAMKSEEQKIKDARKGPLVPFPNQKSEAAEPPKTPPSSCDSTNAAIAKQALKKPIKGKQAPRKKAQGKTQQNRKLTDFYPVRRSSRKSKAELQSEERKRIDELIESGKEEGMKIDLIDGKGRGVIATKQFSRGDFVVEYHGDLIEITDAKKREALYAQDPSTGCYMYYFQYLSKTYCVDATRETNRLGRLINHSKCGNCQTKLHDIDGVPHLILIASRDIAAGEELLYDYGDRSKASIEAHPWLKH

PA-1 [27] = assay: Induction of apoptosis in human PA-1 cells assessed as late apoptotic cells at 5 uM incubated for 48 hrs by AnnexinV-FITC/PI staining based flow cytometry analysis (Rvb= 3.09%); type: functional
PA-1 [28] = assay: Induction of apoptosis in human PA-1 cells assessed as viable cells at 40 uM incubated for 48 hrs by AnnexinV-FITC/PI staining based flow cytometry analysis (Rvb= 88.53%); type: functional; settings: read-out: Activity
PA-1 [29] = assay: Inhibition of colony formation in human PA-1 cells assessed as reduction in number of colonies at 0.25 to 10 uM incubated for 14 days with medium change every 3 days by crystal violet staining method; type: functional, cell-based; settings: dose 0.25-10 µM, time 14.0 day
PA-1 [30] = assay: Induction of apoptosis in human PA-1 cells assessed as early apoptotic cells at 20 uM incubated for 48 hrs by AnnexinV-FITC/PI staining based flow cytometry analysis (Rvb= 6.89%); type: functional
[31] = Protein binding in Sprague-Dawley rat plasma at 2 uM incubated for 5 hrs by equilibrium dialysis based LC-MS/MS analysis; type: ADME, cell-free; settings: read-out: PPB (converted)
[32] = target: Histone-lysine N-methyltransferase EHMT2 (Homo sapiens) (UniProt Q96KQ7); assay: Inhibition of G9a (unknown origin) at 1 to 10 uM by AlphaLlSA assay; settings: dose 1-10 µM
Histone-lysine N-methyltransferase EHMT2 (Homo sapiens), sequence (Q96KQ7 whole entry): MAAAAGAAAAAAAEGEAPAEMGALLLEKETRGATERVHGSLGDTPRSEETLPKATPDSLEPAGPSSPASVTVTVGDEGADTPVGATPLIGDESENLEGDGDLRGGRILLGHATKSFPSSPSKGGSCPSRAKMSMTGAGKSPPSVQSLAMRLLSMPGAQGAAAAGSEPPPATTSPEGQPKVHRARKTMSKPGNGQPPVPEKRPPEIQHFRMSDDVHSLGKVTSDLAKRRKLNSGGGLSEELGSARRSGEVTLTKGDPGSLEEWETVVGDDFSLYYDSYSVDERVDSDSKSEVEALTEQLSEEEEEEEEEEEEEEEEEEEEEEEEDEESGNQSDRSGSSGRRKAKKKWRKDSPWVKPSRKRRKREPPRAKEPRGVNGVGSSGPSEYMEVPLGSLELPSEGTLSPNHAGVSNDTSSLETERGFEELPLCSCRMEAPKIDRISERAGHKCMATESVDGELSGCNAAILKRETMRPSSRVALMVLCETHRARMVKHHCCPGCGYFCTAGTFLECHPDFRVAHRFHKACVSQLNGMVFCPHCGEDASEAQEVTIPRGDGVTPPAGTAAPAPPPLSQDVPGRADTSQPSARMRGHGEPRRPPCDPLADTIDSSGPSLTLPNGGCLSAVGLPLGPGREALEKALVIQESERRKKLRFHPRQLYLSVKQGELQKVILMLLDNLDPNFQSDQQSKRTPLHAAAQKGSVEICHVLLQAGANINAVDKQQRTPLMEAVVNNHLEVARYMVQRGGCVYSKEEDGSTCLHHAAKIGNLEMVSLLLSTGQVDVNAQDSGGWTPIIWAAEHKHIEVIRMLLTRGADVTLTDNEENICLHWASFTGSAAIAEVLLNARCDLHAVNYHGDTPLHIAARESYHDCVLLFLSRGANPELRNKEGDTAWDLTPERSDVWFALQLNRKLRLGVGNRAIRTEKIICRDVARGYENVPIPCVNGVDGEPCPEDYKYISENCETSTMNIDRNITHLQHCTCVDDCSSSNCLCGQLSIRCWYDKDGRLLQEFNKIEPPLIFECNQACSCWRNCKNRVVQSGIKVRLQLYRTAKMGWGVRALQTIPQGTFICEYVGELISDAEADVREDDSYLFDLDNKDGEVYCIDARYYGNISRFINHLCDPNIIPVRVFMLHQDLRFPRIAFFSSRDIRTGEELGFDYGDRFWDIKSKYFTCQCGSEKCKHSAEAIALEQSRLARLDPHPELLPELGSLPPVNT

[33] = target: Histone-lysine N-methyltransferase SUV39H1 (Homo sapiens) (UniProt O43463); assay: Inhibition of SUV39H1 (unknown origin) at 1 to 10 uM by AlphaLlSA assay; settings: dose 1-10 µM
Histone-lysine N-methyltransferase SUV39H1 (Homo sapiens), sequence (O43463 whole entry): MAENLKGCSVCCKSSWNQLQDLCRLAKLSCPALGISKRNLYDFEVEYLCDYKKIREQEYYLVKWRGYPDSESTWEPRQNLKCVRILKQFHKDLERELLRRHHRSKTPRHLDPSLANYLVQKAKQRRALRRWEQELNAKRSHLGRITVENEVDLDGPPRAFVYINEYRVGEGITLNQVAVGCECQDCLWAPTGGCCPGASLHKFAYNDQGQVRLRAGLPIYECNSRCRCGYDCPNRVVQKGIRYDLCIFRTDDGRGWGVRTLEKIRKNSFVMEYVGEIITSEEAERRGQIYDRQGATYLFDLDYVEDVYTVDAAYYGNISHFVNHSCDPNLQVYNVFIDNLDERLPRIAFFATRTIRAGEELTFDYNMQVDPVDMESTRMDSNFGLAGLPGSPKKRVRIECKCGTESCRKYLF

- Cmax [1]: 6.74 µg/mL
- IC50 (A549): 28.7 µM
- Vdss [3]: 0.20228 L/kg
- inhibition [6]: Active
- inhibition [7]: Active
- inhibition [8]: Dose-Dependent Effect
- IC50 [13]: 0.00172 µM
- half-life [16]: 46.2 min
- inhibition [17]: inactive
- Cmax [18]: 22.8 µg/mL
- Activity [19]: Not Active
- t1/2 [20]: 36.6 min
- Tmax [21]: 22.8 min
- inhibition [22]: Active
- inhibition [23]: Active
- inhibition [24]: inactive
- inhibition [25]: Active
- inhibition [26]: inactive
- fraction unbound at 5 h, 2 µM [31]: 0.0022
- inhibition [32]: inactive
- inhibition [33]: inactive
SMILES: C=CC(=O)Nc1ccc(C)c(-c2cc(C(=O)NCc3c(C)cc(C)[nH]c3=O)c(C)c(N(CC)C3CCOCC3)c2)c1
- inhibition (A2780): Dose-Dependent Effect
- Activity [2]: Non-Toxic
- IC50 [4]: > 100 µM
- Activity [5]: Non-Toxic
- Activity (PA-1 [9]): Active
- Activity (PA-1 [10]): 6.16%
- Activity (PA-1 [11]): Tde
- Activity [12]: Non-Toxic
- Activity (PA-1 [14]): 87.19%
- Activity [15]: Non-Toxic
- Activity (PA-1 [27]): 5.21%
- viability at 40 µM (PA-1 [28]): 10.3%
- inhibition (PA-1 [29]): Dose-Dependent Effect
- Activity (PA-1 [30]): 31.78%
